Measured values: US6962933B1, “Method for inhibiting p38 MAP kinase or TNF-α production using a 1,3-thiazole” (Takeda Pharmaceutical Company Limited, priority 1999, dated 2005)

Columns and labels:
[1] = test system: TNF-α production; test: Inhibiting activity of TNF-α production in LPS-stimulated THP-1 cells (ELISA); format: cell-based; settings: Homo sapiens, LPS 5 μg/mL, 4 hours, TNF-α in supernatant by ELISA, read-out: IC50 (concentration necessary for inhibiting TNF-α production by 50%)
Procedure: Measurement of inhibiting activity of TNF-α production
After THP-1 cells which had been cultured on PRMI 1640 medium (manufactured by Life Technologies, Inc.) containing 1% inactivated bovine fetal serum (manufactured by Life Technologies, Inc., U.S.A.) and 10 mM HEPES (pH 7.5) seeded on a 96-well plate to 1×10^5 cells/well, 1 μL test compound dissolved in DMSO was added. After incubation at 37° C. for 1 hour in a CO2 incubator, LPS (Wako Pure Chemicals) was added to the final concentration 5 μg/mL. After cultured at 37° C. for 4 hours in a CO2 incubator, the supernatant was obtained by centrifugation. The concentration of TNF-α in the supernatant was measured by ELISA (R&D Systems, Quantikine Kit). The concentration (IC50 value) of the test compound necessary for inhibiting TNF-α production by 50% was calculated using PRIMS 2.01 (Graphpad Software).

Question: With `CNc1nc(-c2ccc(OC)cc2)c(-c2ccncc2)s1` [Reference Example 13-16, N-methyl [4-(4-methoxyphenyl)-5-(4-pyridyl)-1,3-thiazol-2-yl]amine] as the molecule, how does the melting point read?
Answer: Its melting point is 177 to 178 °C.

Question: And the IC50 [1]?
Answer: The IC50 was 140 nM.

Question: For `CNc1nc(-c2ccc(Cl)cc2)c(-c2ccncc2)s1` [Reference Example 13-70, N-methyl [4-(4-chlorophenyl)-5-(4-pyridyl)-1,3-thiazol-2-yl]amine], which melting point is on record?
Answer: The melting point was 224 to 225 °C.

Question: What about the IC50 [1] of the same molecule?
Answer: The IC50 was 180 nM.

Question: For `Cc1cccc(-c2nc(N)sc2-c2ccncc2)c1` [Reference Example 23-60, [4-(3-methylphenyl)-5-(4-pyridyl)-1,3-thiazol-2-yl]amine], which melting point is on record?
Answer: Its melting point is 255 to 258 °C.

Question: What about the IC50 [1] of the same molecule?
Answer: The IC50 was 46 nM.

Question: With `CNc1nc(-c2ccc(Br)cc2)c(-c2ccncc2)s1` [Reference Example 13-71, N-methyl [4-(4-bromophenyl)-5-(4-pyridyl)-1,3-thiazol-2-yl]amine] as the molecule, how does the melting point read?
Answer: The melting point was 206 to 207 °C.

Question: With `Cc1cccc(-c2nc(-c3ccc([S+](C)[O-])cc3)sc2-c2ccncc2)c1` (stereo not drawn) [Reference Example 44-8, methyl 4-[4-(3-methylphenyl)-5-(4-pyridyl)-1,3-thiazol-2-yl]phenylsulfoxide] as the molecule, how does the melting point read?
Answer: The melting point was 188 to 189 °C.

Question: Which melting point does the source give for `Cc1cc(C)cc(-c2nc(NC(=O)c3ccncc3)sc2-c2ccncc2)c1` [Reference Example 23-200, N-[4-(3,5-dimethylphenyl)-5-(4-pyridyl)-1,3-thiazol-2-yl]isonicotinamide] here?
Answer: The melting point was 302 to 304 °C.
